In PubChem BioAssay (NCI) one finds TGI and GI50 data, which are given here for 15 compounds.

What all share (test): DTP human tumour cell line panel, 48 h
Experiment [1] deals with BT-549 breast.
Experiment [2] deals with UACC-62 melanoma.
In experiment [3] the test system is SK-OV-3 ovarian.
The test system of experiment [4] is SW-620 colon.
In experiment [5] the test system is OVCAR-5 ovarian.
The test system of experiment [6] is NCI-H23 lung.
Experiment [7] relates to MOLT-4 leukemia.
The subject of experiment [8] is MDA-MB-231 breast.
The subject of experiment [9] is COLO 205 colon.
The test system of experiment [10] is RPMI-8226 leukemia.

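How tested: cells in 96-well plates exposed to compound for 48 hours at five concentrations. The concentration for 50% growth inhibition is given as GI50. TGI is the concentration that stops growth completely.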

Broadly, the TGI is the concentration giving total growth inhibition. Read a high TGI as less potent growth arrest. As usually defined, the GI50 is the concentration giving 50% growth inhibition.

As to `COc1ccc(C2=Nc3cc(C)c(C)cc3NC(c3ccccc3)C2)cc1` (stereo unspecified), the TGI in [1], in experiment [2], in experiment [3], in experiment [4], in experiment [5] and in experiment [6] was more than 100 µM each time. Further, the TGI in experiment [7] was more than 100 µM; in experiment [8], more than 100 µM; in experiment [9] it was 37.6 µM; in [10] it was more than 100 µM.

As to `COc1ccc2c(c1)NC1=C(C(=O)OC1)C2c1cc(OC)c2c(c1)OCO2` (stereo unspecified), the 50% growth inhibitory concentration (GI50) was 0.046 µM in experiment [1]; less than 0.0156 µM in experiment [2]; 0.0204 µM in experiment [3]; less than 0.0192 µM in experiment [4]; 0.0817 µM in experiment [5]; 0.0259 µM in experiment [6]. For the same compound, the 50% growth inhibitory concentration (GI50) is 0.0246 µM in experiment [7], 0.0342 µM in experiment [8], less than 0.0135 µM in experiment [9] and less than 0.0198 µM in experiment [10]. The TGI in experiment [1], in [2], in experiment [4], in experiment [5], in experiment [6] and in [7] was more than 100 µM in each case. For the same compound, the results for the TGI in experiment [8], in [9] and in [10] were more than 100 µM, 0.0305 µM and more than 100 µM, respectively.

As for `COc1ccc(CCN2CC=Cn3c2nc2ccccc2c3=O)cc1`, the GI50 in [1] was 0.0611 µM; in experiment [2], 0.232 µM; in [3] it was 0.0559 µM; in experiment [4], 0.037 µM; in experiment [5], 0.217 µM; in experiment [6], 0.0416 µM. Also, the concentration for 50% growth inhibition (GI50) in experiment [7] was 0.0523 µM; in [8], 0.0558 µM; in [9], 0.0267 µM; in experiment [10], 0.0415 µM. The TGI was 15.5 µM in [1]; more than 100 µM in [2]; more than 89.7 µM in experiment [3]; more than 100 µM in [4]; more than 100 µM in [5]; more than 100 µM in [6]. The TGI in experiment [7] was more than 100 µM; in [8] it was more than 100 µM; in [9] it was 0.0847 µM; in [10], 43 µM.

With `N#C/C(=C\c1ccsc1)c1nc2ccccc2o1`, the GI50 in experiment [1] is 48.4 µM; in [2] it was 61.6 µM; in experiment [3], 40.7 µM; in [4], more than 100 µM; in experiment [5], more than 100 µM; in [6] it was more than 100 µM. Moreover, the GI50 in experiment [7] is more than 100 µM; in experiment [8] it was 22.4 µM; in experiment [9], 39 µM; in experiment [10], 61.7 µM. For the same compound, the total growth inhibition concentration (TGI) in experiment [1], in [2], in experiment [3], in [4], in experiment [5] and in experiment [6] was more than 100 µM throughout. The TGI in experiment [7], in experiment [8], in [9] and in experiment [10] was more than 100 µM throughout.

For the compound `COc1ccc2c(c1)c(CC(=O)[Se]C)c(C)n2C(=O)c1ccc(Cl)cc1`, the GI50 was more than 0.445 µM in experiment [2]; more than 0.658 µM in [3]; more than 0.468 µM in experiment [4]; more than 0.424 µM in experiment [5]; more than 0.376 µM in experiment [6]; more than 0.335 µM in experiment [7]. The results for the GI50 in experiment [8], in experiment [9] and in [10] were more than 0.383 µM, more than 0.608 µM and more than 0.542 µM, respectively. Also, the TGI in experiment [2] is more than 1 µM; in [3], 0.989 µM; in [4] it was more than 0.854 µM; in [5] it was more than 1 µM; in experiment [6], more than 0.894 µM; in experiment [7] it was more than 1 µM. In addition, the values for the TGI in experiment [8], in [9] and in experiment [10] were more than 0.637 µM, more than 1 µM and more than 0.942 µM, respectively.

In the case of `CC(=O)N1CC(C)(C)c2c(C)c(O)c(C)c(C)c21`, the TGI in [2], in experiment [3], in [4], in experiment [5], in experiment [6] and in experiment [7] was more than 100 µM in each case. Further, the TGI in experiment [8], in [9] and in experiment [10] was more than 100 µM each time.

Consider `C=CCN=C(N/N=C/c1ccc([N+](=O)[O-])o1)NS(=O)(=O)c1cc(C(=O)Nc2ccc(Cl)cc2)c(Cl)cc1SC`, for which the GI50 in experiment [1] is 5.05 µM; in experiment [2], 2.81 µM; in experiment [3], more than 100 µM; in experiment [4], 1.02 µM; in experiment [5], 14.1 µM; in [6], more than 62.7 µM. Also, in [10], the GI50 was 0.504 µM. In addition, the TGI is more than 79.7 µM in [1]; more than 27.7 µM in [2]; more than 100 µM in experiment [3]; more than 100 µM in experiment [4]; more than 100 µM in [5]; more than 100 µM in experiment [6]. Besides, the TGI in experiment [7] was more than 39.5 µM; in experiment [9], more than 100 µM.

On to `COC(C(=O)NN)c1ccccc1` (stereo unspecified), for which the TGI in [1], in experiment [2], in experiment [3], in experiment [4], in experiment [5] and in experiment [6] was more than 100 µM in each case. The TGI in experiment [7] and in experiment [10] was more than 100 µM in each case.

Regarding `CC1CCC/C1=C(/I)C(=O)c1ccccc1` (stereo unspecified), the TGI in experiment [2] is more than 100 µM; in [3], more than 100 µM; in experiment [4] it was more than 100 µM; in experiment [5] it was more than 100 µM; in experiment [6], more than 100 µM; in experiment [7], 45.2 µM. Further, the TGI in [8], in experiment [9] and in experiment [10] was more than 100 µM each time.

In the case of `COc1cc(OC)c2nc(C)c3c(c2c1)SCC3`, the concentration for total growth inhibition (TGI) in experiment [2] was 56.4 µM; in experiment [3], 48.9 µM; in experiment [4], more than 100 µM; in experiment [5] it was 80.2 µM; in [6], 58.6 µM; in [7] it was more than 100 µM. Further, the TGI in experiment [8] was 44.7 µM; in experiment [9], more than 100 µM; in [10] it was 64.4 µM.

Consider `CCOC(=O)CCC(NC(=O)OCc1ccccc1)C(=O)NC(CCC(=O)OCC)C(=O)NC(CCC(=O)OCC)C(=O)NC(CCC(=O)OCC)C(=O)NC(CCC(=O)OCC)C(=O)NC(CCC(=O)OCC)C(=O)NC(CCC(=O)OCC)C(=O)OCC` (stereo unspecified), for which the concentration for total growth inhibition (TGI) in experiment [1], in [2], in experiment [4], in experiment [5], in experiment [6] and in [7] was more than 100 µM throughout. Besides, the concentration for total growth inhibition (TGI) in [8] and in experiment [10] was more than 100 µM each time.

`CN1CCN(C(=O)C(C)(C)c2ccc(C(=O)Nc3cn4cc(-c5ccncc5)ccc4n3)cc2)CC1`: the concentration for 50% growth inhibition (GI50) in [1] was 0.332 µM; in [3] it was 0.275 µM; in experiment [4], 0.185 µM; in [5], 0.405 µM; in [6], 0.307 µM; in [7], 0.319 µM. Further, the GI50 was 0.413 µM in experiment [8], 0.289 µM in [9] and 0.201 µM in experiment [10]. In addition, the TGI was 14.9 µM in [1]; 17.5 µM in [3]; more than 56 µM in [4]; 7.16 µM in [5]; 19.2 µM in experiment [6]; more than 46.7 µM in experiment [7]. In addition, the TGI in experiment [8] is more than 54.1 µM; in [10] it was 1.35 µM.

Regarding `O=C1c2cc3c(cc2[C@@H]2[C@H]1c1ccc([N+](=O)[O-])cc1C(=O)N2CCCBr)OCO3`, the GI50 in experiment [1] was less than 0.01 µM; in experiment [2] it was less than 0.01 µM; in experiment [3] it was less than 0.01 µM; in experiment [4] it was less than 0.01 µM; in [5], less than 0.0158 µM; in experiment [6], less than 0.01 µM. Further, the GI50 was less than 0.01 µM in experiment [7], 0.187 µM in [8] and less than 0.01 µM in experiment [9]. Moreover, the TGI in experiment [1] is 0.411 µM; in [2], less than 0.01 µM; in experiment [3], more than 100 µM; in experiment [4], 3.64 µM; in experiment [6] it was 0.0775 µM; in experiment [7] it was 0.0541 µM. For the same compound, the TGI in experiment [8] is 0.699 µM; in experiment [9], more than 100 µM.

Take `CCCCOC(=O)N1CCN(/[N+]([O-])=N/Oc2ccc([N+](=O)[O-])cc2[N+](=O)[O-])CC1`: the GI50 in experiment [1] was 4.87 µM; in [2], 13.6 µM; in experiment [4] it was 3.38 µM; in experiment [5] it was 3.53 µM; in experiment [6], 4.6 µM; in experiment [7] it was more than 100 µM. Further, the GI50 is 2.31 µM in [8], 2.63 µM in experiment [9] and 2.3 µM in experiment [10]. For the same compound, the TGI is 17.7 µM in experiment [1]; 26.8 µM in experiment [2]; more than 100 µM in experiment [4]; 11.8 µM in experiment [5]; 19.5 µM in experiment [6]; more than 100 µM in experiment [7]. In addition, the total growth inhibition concentration (TGI) in [8] is 5.63 µM; in [9], 5.99 µM; in experiment [10], 5.47 µM.

With `COc1cc(OC)c(C/C=C/c2ccccc2)cc1O`, the TGI in [1] came to 29.6 µM; in [2], 29 µM; in [4], 38 µM; in [5] it was 69.9 µM; in experiment [6] it was 35.2 µM; in experiment [7] it was 40.5 µM. Also, the values for the TGI in experiment [8], in experiment [9] and in experiment [10] were 31.7 µM, 50.7 µM and 38 µM, respectively.
